# Experimental data: publication PMC12420824, “Discovery of a selective alpha-kinase 1 inhibitor for the rare genetic disease ROSAH syndrome” (Nature Communications, 2025)
# How the values were obtained:
# CAMK1b = CAMK1b (Homo sapiens, UniProt Q6P2M8); experiment: HotSpot kinase assay; settings: read-out: % Enzyme Activity (relative to DMSO control), 10 uM
# DAPK1 = DAPK1 (Homo sapiens, UniProt P53355); experiment: HotSpot kinase assay; settings: read-out: % Enzyme Activity (relative to DMSO control), 10 uM
# DAPK1, sequence (P53355 whole entry): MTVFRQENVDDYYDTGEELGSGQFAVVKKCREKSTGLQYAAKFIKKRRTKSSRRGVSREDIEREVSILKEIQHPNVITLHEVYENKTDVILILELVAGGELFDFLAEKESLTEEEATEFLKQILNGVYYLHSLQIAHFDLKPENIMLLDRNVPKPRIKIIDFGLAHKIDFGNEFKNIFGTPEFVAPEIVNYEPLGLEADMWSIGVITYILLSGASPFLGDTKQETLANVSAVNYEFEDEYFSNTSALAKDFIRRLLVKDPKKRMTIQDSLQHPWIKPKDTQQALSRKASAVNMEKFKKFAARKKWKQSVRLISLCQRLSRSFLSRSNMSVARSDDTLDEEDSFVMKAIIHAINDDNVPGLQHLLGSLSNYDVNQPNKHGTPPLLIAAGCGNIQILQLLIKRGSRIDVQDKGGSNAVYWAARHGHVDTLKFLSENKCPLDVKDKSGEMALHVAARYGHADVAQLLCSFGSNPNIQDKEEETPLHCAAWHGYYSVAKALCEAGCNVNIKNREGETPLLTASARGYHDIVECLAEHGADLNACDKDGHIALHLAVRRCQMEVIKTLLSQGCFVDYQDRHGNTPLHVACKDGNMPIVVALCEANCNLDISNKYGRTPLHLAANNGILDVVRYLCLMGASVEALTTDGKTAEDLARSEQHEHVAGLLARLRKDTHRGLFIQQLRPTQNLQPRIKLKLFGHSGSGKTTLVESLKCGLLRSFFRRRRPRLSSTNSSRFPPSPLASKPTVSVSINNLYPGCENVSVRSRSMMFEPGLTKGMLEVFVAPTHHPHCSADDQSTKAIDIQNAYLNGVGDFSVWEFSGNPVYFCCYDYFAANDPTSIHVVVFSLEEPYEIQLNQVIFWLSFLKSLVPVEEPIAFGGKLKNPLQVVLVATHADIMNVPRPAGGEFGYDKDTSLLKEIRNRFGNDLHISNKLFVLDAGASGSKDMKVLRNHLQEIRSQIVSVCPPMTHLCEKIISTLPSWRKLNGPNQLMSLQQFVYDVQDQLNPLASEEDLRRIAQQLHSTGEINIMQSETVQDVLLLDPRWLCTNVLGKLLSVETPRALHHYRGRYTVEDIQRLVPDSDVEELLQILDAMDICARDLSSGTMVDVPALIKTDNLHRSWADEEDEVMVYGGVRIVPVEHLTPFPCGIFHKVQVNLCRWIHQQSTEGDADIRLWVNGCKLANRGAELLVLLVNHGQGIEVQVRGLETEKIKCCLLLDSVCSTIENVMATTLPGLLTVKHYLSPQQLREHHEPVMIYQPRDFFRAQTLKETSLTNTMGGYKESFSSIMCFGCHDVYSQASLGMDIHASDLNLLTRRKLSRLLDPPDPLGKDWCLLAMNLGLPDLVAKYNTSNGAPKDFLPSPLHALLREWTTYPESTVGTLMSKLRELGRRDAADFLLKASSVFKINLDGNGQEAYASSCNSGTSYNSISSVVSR
# Text: (§1) Additionally, a 10-dose dilution series of staurosporine and other enzyme-appropriate compounds were included as positive control inhibitors.
# NEK2 = NEK2 (Homo sapiens, UniProt P51955); experiment: HotSpot kinase assay; settings: read-out: % Enzyme Activity (relative to DMSO control), 10 uM
# Text: as §1
# PKCd = PKCd (Homo sapiens, UniProt Q05655); experiment: HotSpot kinase assay; settings: read-out: % Enzyme Activity (relative to DMSO control), 10 uM
# PHKg2 = PHKg2 (Homo sapiens, UniProt P15735); experiment: HotSpot kinase assay; settings: read-out: % Enzyme Activity (relative to DMSO control), 10 uM
# Text: as §1
# NEK4 = NEK4 (Homo sapiens, UniProt P51957); experiment: HotSpot kinase assay; settings: read-out: % Enzyme Activity (relative to DMSO control), 10 uM
# SYK = SYK (Homo sapiens, UniProt P43405); experiment: HotSpot kinase assay; settings: read-out: % Enzyme Activity (relative to DMSO control), 10 uM
# Text: as §1
# AMPK(A1/B2/G1) = AMPK(A1/B2/G1) (Homo sapiens, UniProt Q13131); experiment: HotSpot kinase assay; settings: read-out: % Enzyme Activity (relative to DMSO control), 10 uM
# Text: as §1
# AMPK(A2/B1/G1) = AMPK(A2/B1/G1) (Homo sapiens, UniProt P54646); experiment: HotSpot kinase assay; settings: read-out: % Enzyme Activity (relative to DMSO control), 10 uM
# Text: as §1
# GCK/MAP4K2 = GCK/MAP4K2 (Homo sapiens, UniProt Q12851); experiment: HotSpot kinase assay; settings: read-out: % Enzyme Activity (relative to DMSO control), 10 uM
# BRAF = BRAF (Homo sapiens, UniProt P15056); experiment: HotSpot kinase assay; settings: read-out: % Enzyme Activity (relative to DMSO control), 10 uM
# PAK6 = PAK6 (Homo sapiens, UniProt Q9NQU5); experiment: HotSpot kinase assay; settings: read-out: % Enzyme Activity (relative to DMSO control), 10 uM
# Text: as §1
# ABL2/ARG = ABL2/ARG (Homo sapiens, UniProt P42684); experiment: HotSpot kinase assay; settings: read-out: % Enzyme Activity (relative to DMSO control), 10 uM
# PKCzeta = PKCzeta (Homo sapiens, UniProt Q05513); experiment: HotSpot kinase assay; settings: read-out: % Enzyme Activity (relative to DMSO control), 10 uM
# Text: as §1
# CHK2 = CHK2 (Homo sapiens, UniProt O96017); experiment: HotSpot kinase assay; settings: read-out: % Enzyme Activity (relative to DMSO control), 10 uM
# STK38L/NDR2 = STK38L/NDR2 (Homo sapiens, UniProt Q9Y2H1); experiment: HotSpot kinase assay; settings: read-out: % Enzyme Activity (relative to DMSO control), 10 uM
# Text: as §1
# CDK4/cyclin D1 = CDK4/cyclin D1 (Homo sapiens, UniProt P11802); experiment: HotSpot kinase assay; settings: read-out: % Enzyme Activity (relative to DMSO control), 10 uM
# Text: as §1
# mTOR/FRAP1 = mTOR/FRAP1 (Homo sapiens, UniProt P42345); experiment: HotSpot kinase assay; settings: read-out: % Enzyme Activity (relative to DMSO control), 10 uM
# Text: as §1
# CAMKK1 = CAMKK1 (Homo sapiens, UniProt Q8N5S9); experiment: HotSpot kinase assay; settings: read-out: % Enzyme Activity (relative to DMSO control), 10 uM
# Text: as §1
# WNK3 = WNK3 (Homo sapiens, UniProt Q9BYP7); experiment: HotSpot kinase assay; settings: read-out: % Enzyme Activity (relative to DMSO control), 10 uM
# TBK1 = TBK1 (Homo sapiens, UniProt Q9UHD2); experiment: HotSpot kinase assay; settings: read-out: % Enzyme Activity (relative to DMSO control), 10 uM
# Text: as §1
# PIM3 = PIM3 (Homo sapiens, UniProt Q86V86); experiment: HotSpot kinase assay; settings: read-out: % Enzyme Activity (relative to DMSO control), 10 uM
# Text: as §1
# ERBB2/HER2 = ERBB2/HER2 (Homo sapiens, UniProt P04626); experiment: HotSpot kinase assay; settings: read-out: % Enzyme Activity (relative to DMSO control), 10 uM
# Text: as §1
# FGR = FGR (Homo sapiens, UniProt P09769); experiment: HotSpot kinase assay; settings: read-out: % Enzyme Activity (relative to DMSO control), 10 uM
# Text: as §1
# CDK1/cyclin B = CDK1/cyclin B (Homo sapiens, UniProt P06493); experiment: HotSpot kinase assay; settings: read-out: % Enzyme Activity (relative to DMSO control), 10 uM
# CDK1/cyclin B, sequence (P06493 whole entry): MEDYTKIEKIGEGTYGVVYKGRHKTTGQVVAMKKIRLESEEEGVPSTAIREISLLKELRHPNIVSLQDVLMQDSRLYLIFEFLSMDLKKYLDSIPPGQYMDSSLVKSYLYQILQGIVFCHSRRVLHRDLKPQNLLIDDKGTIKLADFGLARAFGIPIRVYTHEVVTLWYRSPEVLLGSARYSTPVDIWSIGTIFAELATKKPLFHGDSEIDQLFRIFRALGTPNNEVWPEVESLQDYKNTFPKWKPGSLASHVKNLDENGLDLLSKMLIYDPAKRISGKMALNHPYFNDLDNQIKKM
# CDK1/cyclin B, sequence (P14635 whole entry partner): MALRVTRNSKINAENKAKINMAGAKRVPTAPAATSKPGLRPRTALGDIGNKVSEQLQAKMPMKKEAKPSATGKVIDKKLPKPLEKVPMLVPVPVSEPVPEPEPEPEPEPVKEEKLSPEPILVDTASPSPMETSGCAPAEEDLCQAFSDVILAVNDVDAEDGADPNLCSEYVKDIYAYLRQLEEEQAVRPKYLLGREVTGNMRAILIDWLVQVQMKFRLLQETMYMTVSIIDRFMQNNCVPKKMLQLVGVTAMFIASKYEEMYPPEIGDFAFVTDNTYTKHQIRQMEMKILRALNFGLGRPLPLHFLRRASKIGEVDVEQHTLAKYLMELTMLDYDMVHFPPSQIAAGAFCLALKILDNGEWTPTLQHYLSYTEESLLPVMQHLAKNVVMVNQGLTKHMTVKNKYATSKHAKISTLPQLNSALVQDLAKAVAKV
# NLK = NLK (Homo sapiens, UniProt Q9UBE8); experiment: HotSpot kinase assay; settings: read-out: % Enzyme Activity (relative to DMSO control), 10 uM
# Text: as §1
# YSK4/MAP3K19 = YSK4/MAP3K19 (Homo sapiens, UniProt Q56UN5); experiment: HotSpot kinase assay; settings: read-out: % Enzyme Activity (relative to DMSO control), 10 uM
# Text: as §1
# CK2a = CK2a (Homo sapiens, UniProt P68400); experiment: HotSpot kinase assay; settings: read-out: % Enzyme Activity (relative to DMSO control), 10 uM
# Text: as §1
# CDK2/cyclin O = CDK2/cyclin O (Homo sapiens, UniProt P24941); experiment: HotSpot kinase assay; settings: read-out: % Enzyme Activity (relative to DMSO control), 10 uM
# IKKe/IKBKE = IKKe/IKBKE (Homo sapiens, UniProt Q14164); experiment: HotSpot kinase assay; settings: read-out: % Enzyme Activity (relative to DMSO control), 10 uM
# IKKe/IKBKE, sequence (Q14164 whole entry): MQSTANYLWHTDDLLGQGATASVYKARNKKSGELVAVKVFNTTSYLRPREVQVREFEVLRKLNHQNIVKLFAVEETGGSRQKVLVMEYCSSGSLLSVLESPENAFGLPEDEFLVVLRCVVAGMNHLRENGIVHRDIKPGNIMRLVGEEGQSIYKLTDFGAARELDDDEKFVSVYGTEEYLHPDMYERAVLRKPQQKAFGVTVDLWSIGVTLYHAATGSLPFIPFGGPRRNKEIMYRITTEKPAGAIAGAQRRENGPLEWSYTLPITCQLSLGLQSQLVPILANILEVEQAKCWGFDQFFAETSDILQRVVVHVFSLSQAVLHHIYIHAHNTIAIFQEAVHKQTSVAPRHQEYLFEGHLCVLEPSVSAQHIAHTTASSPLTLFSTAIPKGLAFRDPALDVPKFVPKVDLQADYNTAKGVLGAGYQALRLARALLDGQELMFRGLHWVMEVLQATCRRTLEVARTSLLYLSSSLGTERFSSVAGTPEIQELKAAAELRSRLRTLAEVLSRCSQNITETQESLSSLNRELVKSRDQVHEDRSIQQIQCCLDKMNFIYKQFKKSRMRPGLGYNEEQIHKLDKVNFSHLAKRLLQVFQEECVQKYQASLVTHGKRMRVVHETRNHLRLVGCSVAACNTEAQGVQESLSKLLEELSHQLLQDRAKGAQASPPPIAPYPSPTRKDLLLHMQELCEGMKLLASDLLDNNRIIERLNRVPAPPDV
# Text: as §1
# STK21/CIT = STK21/CIT (Homo sapiens, UniProt O14578); experiment: HotSpot kinase assay; settings: read-out: % Enzyme Activity (relative to DMSO control), 10 uM
# STK21/CIT, sequence (O14578 whole entry): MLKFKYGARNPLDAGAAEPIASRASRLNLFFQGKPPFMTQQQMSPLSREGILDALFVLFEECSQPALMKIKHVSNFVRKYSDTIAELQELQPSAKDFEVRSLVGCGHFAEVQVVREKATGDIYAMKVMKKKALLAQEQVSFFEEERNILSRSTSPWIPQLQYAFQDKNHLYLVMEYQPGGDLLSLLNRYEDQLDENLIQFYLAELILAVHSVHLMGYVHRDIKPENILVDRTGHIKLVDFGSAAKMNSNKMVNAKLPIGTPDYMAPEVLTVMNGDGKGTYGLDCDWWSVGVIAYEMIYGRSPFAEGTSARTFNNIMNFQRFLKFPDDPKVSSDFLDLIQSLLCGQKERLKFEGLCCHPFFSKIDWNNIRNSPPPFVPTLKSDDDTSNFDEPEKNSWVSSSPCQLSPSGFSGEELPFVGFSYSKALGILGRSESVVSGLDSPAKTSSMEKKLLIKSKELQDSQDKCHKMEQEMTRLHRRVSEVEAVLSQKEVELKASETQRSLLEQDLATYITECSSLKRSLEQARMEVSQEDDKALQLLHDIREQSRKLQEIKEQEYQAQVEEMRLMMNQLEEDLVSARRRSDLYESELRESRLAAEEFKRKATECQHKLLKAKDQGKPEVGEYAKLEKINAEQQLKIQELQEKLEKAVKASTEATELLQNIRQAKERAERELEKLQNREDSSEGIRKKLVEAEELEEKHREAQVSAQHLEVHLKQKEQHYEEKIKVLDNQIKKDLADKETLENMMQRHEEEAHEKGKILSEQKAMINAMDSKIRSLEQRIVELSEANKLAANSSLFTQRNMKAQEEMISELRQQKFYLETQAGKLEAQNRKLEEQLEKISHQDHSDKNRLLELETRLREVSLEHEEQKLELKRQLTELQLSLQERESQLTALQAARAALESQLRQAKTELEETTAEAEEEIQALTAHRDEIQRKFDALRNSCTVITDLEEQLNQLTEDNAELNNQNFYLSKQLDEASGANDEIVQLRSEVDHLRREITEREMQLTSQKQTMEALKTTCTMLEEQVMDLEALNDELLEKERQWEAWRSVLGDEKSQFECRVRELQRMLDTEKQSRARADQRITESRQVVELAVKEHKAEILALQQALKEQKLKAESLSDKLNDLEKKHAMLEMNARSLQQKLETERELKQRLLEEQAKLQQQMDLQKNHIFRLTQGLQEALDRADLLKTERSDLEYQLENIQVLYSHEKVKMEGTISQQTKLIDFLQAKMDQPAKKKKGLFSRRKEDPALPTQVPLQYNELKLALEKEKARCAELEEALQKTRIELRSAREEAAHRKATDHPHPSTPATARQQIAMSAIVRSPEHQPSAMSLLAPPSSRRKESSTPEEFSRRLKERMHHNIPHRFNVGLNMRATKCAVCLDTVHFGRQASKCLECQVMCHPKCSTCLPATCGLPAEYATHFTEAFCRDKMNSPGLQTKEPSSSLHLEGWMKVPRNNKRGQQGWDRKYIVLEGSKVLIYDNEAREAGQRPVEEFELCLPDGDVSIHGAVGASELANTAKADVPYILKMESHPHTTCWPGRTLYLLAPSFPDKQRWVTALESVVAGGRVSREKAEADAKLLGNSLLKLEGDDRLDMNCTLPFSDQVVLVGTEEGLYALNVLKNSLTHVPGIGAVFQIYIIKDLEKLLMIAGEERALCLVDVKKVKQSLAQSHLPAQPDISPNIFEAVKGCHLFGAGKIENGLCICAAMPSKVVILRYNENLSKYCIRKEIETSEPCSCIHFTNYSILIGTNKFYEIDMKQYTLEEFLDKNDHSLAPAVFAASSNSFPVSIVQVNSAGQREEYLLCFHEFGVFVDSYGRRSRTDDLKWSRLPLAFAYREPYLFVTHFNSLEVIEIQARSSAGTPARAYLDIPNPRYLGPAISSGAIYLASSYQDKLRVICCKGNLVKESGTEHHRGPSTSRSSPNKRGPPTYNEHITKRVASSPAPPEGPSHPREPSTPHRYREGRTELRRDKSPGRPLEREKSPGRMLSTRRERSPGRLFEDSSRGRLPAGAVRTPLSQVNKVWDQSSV
# Text: as §1
# AMPK (A1/B2/G2) = AMPK (A1/B2/G2) (Homo sapiens, UniProt Q13131); experiment: HotSpot kinase assay; settings: read-out: % Enzyme Activity (relative to DMSO control), 10 uM
# Text: as §1
# BRSK1 = BRSK1 (Homo sapiens, UniProt Q8TDC3); experiment: HotSpot kinase assay; settings: read-out: % Enzyme Activity (relative to DMSO control), 10 uM
# Text: as §1
# GRK6 = GRK6 (Homo sapiens, UniProt P43250); experiment: HotSpot kinase assay; settings: read-out: % Enzyme Activity (relative to DMSO control), 10 uM
# Text: as §1
# EPHA1 = EPHA1 (Homo sapiens, UniProt P21709); experiment: HotSpot kinase assay; settings: read-out: % Enzyme Activity (relative to DMSO control), 10 uM
# WEE1 = WEE1 (Homo sapiens, UniProt P30291); experiment: HotSpot kinase assay; settings: read-out: % Enzyme Activity (relative to DMSO control), 10 uM
# Text: as §1
# FAK/PTK2 = FAK/PTK2 (Homo sapiens, UniProt Q05397); experiment: HotSpot kinase assay; settings: read-out: % Enzyme Activity (relative to DMSO control), 10 uM
# Text: as §1
# c-Src = c-Src (Homo sapiens, UniProt P12931); experiment: HotSpot kinase assay; settings: read-out: % Enzyme Activity (relative to DMSO control), 10 uM
# [1] = tested on: HEK-293 cells stably overexpressing ALPK1; experiment: CXCL10, TNF, CXCL8 mRNA (qPCR); settings: 30 h
smiles,measurement,setting,value
C#C[C@@](C)(c1ccc(Cl)cc1)c1csc(NC(=O)c2c(F)cc(N3CCNCC3)cc2F)n1 (stereo in doubt) [DF-003],remaining activity at 10 µM,CAMK1b,36.7%
same,remaining activity at 10 µM,DAPK1,62.8%
same,remaining activity at 10 µM,NEK2,68.6%
same,remaining activity at 10 µM,PKCd,69.8%
same,remaining activity at 10 µM,PHKg2,74.2%
same,remaining activity at 10 µM,NEK4,75.9%
same,remaining activity at 10 µM,SYK,78.8%
same,remaining activity at 10 µM,AMPK(A1/B2/G1),79.6%
same,remaining activity at 10 µM,AMPK(A2/B1/G1),83.4%
same,remaining activity at 10 µM,GCK/MAP4K2,84%
same,remaining activity at 10 µM,BRAF,84.1%
same,remaining activity at 10 µM,PAK6,84.2%
same,remaining activity at 10 µM,ABL2/ARG,89.2%
same,remaining activity at 10 µM,PKCzeta,89.4%
same,remaining activity at 10 µM,CHK2,89.9%
same,remaining activity at 10 µM,STK38L/NDR2,90.6%
same,remaining activity at 10 µM,CDK4/cyclin D1,91.3%
same,remaining activity at 10 µM,mTOR/FRAP1,92.1%
same,remaining activity at 10 µM,CAMKK1,92.8%
same,remaining activity at 10 µM,WNK3,95.4%
same,remaining activity at 10 µM,TBK1,95.4%
same,remaining activity at 10 µM,PIM3,95.5%
same,remaining activity at 10 µM,ERBB2/HER2,95.9%
same,remaining activity at 10 µM,FGR,97.8%
same,remaining activity at 10 µM,CDK1/cyclin B,99.5%
same,remaining activity at 10 µM,NLK,99.5%
same,remaining activity at 10 µM,YSK4/MAP3K19,100%
same,remaining activity at 10 µM,CK2a,101%
same,remaining activity at 10 µM,CDK2/cyclin O,103%
same,remaining activity at 10 µM,IKKe/IKBKE,104%
same,remaining activity at 10 µM,STK21/CIT,108%
same,remaining activity at 10 µM,AMPK (A1/B2/G2),113%
same,remaining activity at 10 µM,BRSK1,116%
same,remaining activity at 10 µM,GRK6,117%
same,remaining activity at 10 µM,EPHA1,119%
same,remaining activity at 10 µM,WEE1,125%
same,remaining activity at 10 µM,FAK/PTK2,128%
same,remaining activity at 10 µM,c-Src,129%
same,"impact on basal expression of TNF, CXCL10, CXCL8",[1],no impact
